The results in this text go back to patent EP4008330A1, “COMBINED INHIBITION OF AMINO ACID TRANSPORTERS FOR INHIBITING HUMAN PLASMACYTOID DENDRITIC CELL ACTIVITY DURING AUTOIMMUNITY” (Max-Planck-Gesellschaft zur Förderung der Wissenschaften …, priority 2020, dated 2022).

Each structure is given as a SMILES string.

Data set [1] relates to pDC. In words: Intracellular IFNα and TNFα production by CpG-A-stimulated isolated pDC (flow cytometry). It counts as cell-based, human. An excerpt:
PBMC from buffy coats from healthy blood donors were isolated by density gradient centrifugation using SepMate tubes and Lymphoprep (both […] Technologies). pDC were negatively selected from PBMC using the plasmacytoid dendritic cell isolation kit II (Miltenyi Biotec). Buffy coats were kindly provided by the Institute for Transfusion Medicine and Gene Therapy, Medical Center - University of Freiburg (donor consent, anonymized). Skin samples of lupus patients were obtained through the biobank of the SFB829 (Z4 project) with informed consent from all the subjects and ethical approval obtained from the Ethics Committee at the University of Cologne (votes 12-163 and 19-1146). SLE PBMC were provided by ImmRheum biobank in Freiburg, a project that was approved by the local ethical committee (votes 507/16 and 624/14). All patients who provided blood to the biobank had provided written informed consent.
(§1) Cells were stimulated with 5 µM CpG-A ODN (ODN2216, InvivoGen) for times indicated.
The following fluorochrome-conjugated monoclonal antibodies were used for staining cell surface markers: IL-3Ra (CD123) (Miltenyi Biotec, clone AC145), HLA-DR (BD Bioscience, clone G46-6), CD116 (BD Bioscience, clone hGMCSFR-M1), CD4 (Biolegend, clone A161A1). […] Isolated pDC staining was performed in 0.5% BSA in PBS for 10 min at RT, dead cells were excluded with the LIVE/DEAD Fixable Near-IR or Aqua Dead Cell Stain Kits (Thermo scientific). Unspecific binding was blocked with FcR blocking reagent (Miltenyi). The following fluorochrome-conjugated Abs were used for intracellular staining: IFNα (Miltenyi, LT27:295), TNFα (BioLegend, clone Mab11), pS6(S235/236; CST, clone D57.2.2e), pSTAT5 (Y694; CST, clone C71E5). After surface staining, cells were fixed using Fixation/Permeabilization Kit (BD Bioscience) for 20 min at 4°C, and then additionally permeabilized in Perm/Wash solution for 30 min at 4°C, after which cells were incubated with antibodies against intracellular proteins, at previously determined antibody dilutions, for 30 min at RT. […] Cycloheximide (Sigma) at 100 µg/ml was used as a positive control for protein synthesis inhibition.
(In general: In flow cytometry, cells or beads pass a laser one at a time.)

Data set [2] has as its system pDC. In words: Live cells / cell death of isolated pDC (LIVE/DEAD stain). It counts as cell-based. The protocol: as §1
(§2) Isolated pDC staining was performed in 0.5% BSA in PBS for 10 min at RT, dead cells were excluded with the LIVE/DEAD Fixable Near-IR or Aqua Dead Cell Stain Kits (Thermo scientific). Unspecific binding was blocked with FcR blocking reagent (Miltenyi). The following fluorochrome-conjugated Abs were used for intracellular staining: IFNα (Miltenyi, LT27:295), TNFα (BioLegend, clone Mab11), pS6(S235/236; CST, clone D57.2.2e), pSTAT5 (Y694; CST, clone C71E5). After surface staining, cells were fixed using Fixation/Permeabilization Kit (BD Bioscience) for 20 min at 4°C, and then additionally permeabilized in Perm/Wash solution for 30 min at 4°C, after which cells were incubated with antibodies against intracellular proteins, at previously determined antibody dilutions, for 30 min at RT. […] Cycloheximide (Sigma) at 100 µg/ml was used as a positive control for protein synthesis inhibition.

Data set [3] deals with pDC. The data set is described as follows: Combined kynurenine uptake and pS6 (S235/236) in pDC (double positive cells). It counts as cell-based, human.
Source text: To confirm that functional System LAA transport is a prerequisite for mTORC1 activation in response to CpG-A, the effects of IL-3 and CpG-A were examined on combined measurements of kynurenine uptake, S6 (S235/236) phosphorylation and cytokine production.
Data set [4] deals with pDC. In words: Lactate levels in pDC culture medium (Cedex Bio Analyzer). It counts as cell-based, human. As to conditions: pDC in IL-3, CpG-A and inhibitor for 10 h. The protocol: as §1
Glucose and lactate were measured in cell culture supernatants using the Cedex Bio Analyzer (Roche) and data presented as mmol/L.

Data set [5] relates to pDC. The data set is described as follows: De novo protein synthesis in pDC, incorporation of puromycin analogue (OPP). It counts as cell-based, human. Conditions: pDC in IL-3, CpG-A for 10 h and inhibitor.
The target in data set [6] is T1, System LAA transporters SLC7A5 and SLC3A2 (Homo sapiens, UniProt Q01650).
T1 construct: freshly isolated pDC from PBMC of healthy donors and SLE patients also expressed System LAA transporters SLC7A5 and SLC3A2; endogenous in cells; host or cells: Primary plasmacytoid dendritic cells isolated from PBMC of human donors
In words: Kynurenine uptake by pDC (flow cytometry), System LAA transporter activity. The data set is classed as cell-based. The protocol:
(§3) Briefly, stained cells were incubated in HBSS (Gibco) with 200 µM kynurenine (Sigma) for 4 min at 37°C.
To assess whether IL-3-induced expression of SLC7A5 and SLC3A2 allowed the assembly of a functional System LAA transporter, we used a flow cytometry-based assay that measures the ability of cells to take up kynurenine, a naturally fluorescing molecule that is transported into cells via SLC7A5; this can be used as a proxy measurement of large neutral amino acid (LNAA) uptake. […] Of interest, freshly isolated pDC from PBMC of healthy donors and SLE patients also expressed System LAA transporters SLC7A5 and SLC3A2 (Figure 5D) and furthermore pDC from healthy donors had the ability to take up kynurenine immediately ex vivo, a process that was blocked by BCH (Figure 5E).

Another data set concerns SLC7A11. The data set is described as follows: SLC7A11 mRNA expression in pDC (PrimeFlow RNA). The data set is classed as cell-based, human. As to conditions: pDC in IL-3 and inhibitor o/n; for SLC7A11 and SLC7A5 mRNA expression (double positive cells): then CpG-A 5h (Figure 12B). The protocol: as §1, §3
Another data set has as its system STAT5 (Y694). In words: STAT5 (Y694) phosphorylation in pDC by flow cytometry. It counts as cell-based, human. As to conditions: IL-3-induced; pDC with inhibitor o/n. Here is the method:
as §1, §2

Another data set relates to SLC7A5 and SLC3A2. In words: SLC7A5 and SLC3A2 mRNA expression in pDC (PrimeFlow RNA). As to conditions: pDC in IL-3 and inhibitor o/n, then CpG-A 5h.
In another data set the test system is mTORC1. The data set is described as follows: S6 (S235/236) phosphorylation in pDC by flow cytometry, as measure of mTORC1 activity. As to conditions: pDC in IL-3 with inhibitor, stimulated with CpG-A; 20 nM RAP, 1µM AZD, BAR. The data set is classed as cell-based, human. The protocol:
as §1, §2

[7] abbreviates: pDC in IL-3, CpG-A and inhibitors for 5h after o/n rest (Figure 4E), 10µM HPA, 1 µM oligomycin.
Setting [8] is: pDC in IL-3 and inhibitor o/n, then CpG-A 5h, 20 nM RAP, 250 nM TOR, 10µM HPA, 1µM AZD, BAR, 5 µM ERA, 100 or 200 µM SAZ.
[9] abbreviates: pDC in IL-3 and inhibitor o/n, then CpG-A 5h, 20 nM RAP, 10µM HPA, 1µM AZD, BAR, 5 µM ERA, 100 or 200 µM SAZ.
[10] abbreviates: cultured pDC +/- IL-3, +/- CpG-A, 200 µM kynurenine 4 min, 10 mM BCH at time of uptake.

T1 sequence (Q01650 whole entry): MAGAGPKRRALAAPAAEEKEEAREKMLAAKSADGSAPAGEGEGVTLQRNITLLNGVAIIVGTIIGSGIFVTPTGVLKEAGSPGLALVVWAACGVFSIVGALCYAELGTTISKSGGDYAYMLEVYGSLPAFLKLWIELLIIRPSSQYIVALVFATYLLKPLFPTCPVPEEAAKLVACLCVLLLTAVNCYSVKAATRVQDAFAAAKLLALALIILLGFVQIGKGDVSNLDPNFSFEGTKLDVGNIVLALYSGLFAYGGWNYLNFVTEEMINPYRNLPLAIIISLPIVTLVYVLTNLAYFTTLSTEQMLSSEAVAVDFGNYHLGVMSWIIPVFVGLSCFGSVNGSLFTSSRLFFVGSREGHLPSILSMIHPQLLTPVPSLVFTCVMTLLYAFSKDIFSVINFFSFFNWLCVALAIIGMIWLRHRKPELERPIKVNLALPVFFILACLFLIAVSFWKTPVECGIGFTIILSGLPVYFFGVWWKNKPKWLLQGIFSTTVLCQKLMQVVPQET
T1 sequence (P08195 103-630 partner limits assumed): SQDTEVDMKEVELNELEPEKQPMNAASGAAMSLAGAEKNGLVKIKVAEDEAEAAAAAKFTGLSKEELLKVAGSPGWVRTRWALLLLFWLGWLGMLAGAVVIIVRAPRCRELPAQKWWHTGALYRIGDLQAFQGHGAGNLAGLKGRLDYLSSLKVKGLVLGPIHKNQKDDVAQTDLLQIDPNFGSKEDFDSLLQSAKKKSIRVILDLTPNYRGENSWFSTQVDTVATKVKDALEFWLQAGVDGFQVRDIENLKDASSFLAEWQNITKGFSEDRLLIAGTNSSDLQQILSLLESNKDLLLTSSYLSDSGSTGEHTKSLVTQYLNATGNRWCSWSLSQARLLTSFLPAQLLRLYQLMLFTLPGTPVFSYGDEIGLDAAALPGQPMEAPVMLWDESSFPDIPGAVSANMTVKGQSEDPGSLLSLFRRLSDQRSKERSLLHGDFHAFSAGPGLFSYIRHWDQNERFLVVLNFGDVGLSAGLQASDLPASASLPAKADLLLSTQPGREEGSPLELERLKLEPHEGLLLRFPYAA

For the compound `CC[C@H]1/C=C/C=C/C[C@@H](C)[C@H](O)[C@@](C)(O)C(=O)[C@@H](C)[C@H](O)[C@@H](C)C(=O)[C@@H](C)[C@H](O)[C@@H](C)/C=C/C(=O)O[C@@H]2[C@H](C)[C@H](CC1)O[C@]1(CC[C@H](C)[C@H](C[C@@H](C)O)O1)[C@H]2C` [OLI, oligomycin], in the data set on pDC [1] (setting [7]), the IFNα production entry is “inhibited IFNα production to approximately the same extent as HPA” and the TNFα production result is “no effect”.

Take `CCOc1ccccc1-n1c(C(C)N2CCN(C(=O)COc3ccc(Cl)cc3)CC2)nc2ccccc2c1=O` (centres unmarked) [ERA, erastin]: the “live cells (cell death)” value in the data set with pDC [2] is on record as “absence of appreciable cell death”.

In the case of `O=C(O)c1cc(/N=N/c2ccc(S(=O)(=O)Nc3ccccn3)cc2)ccc1O` [Sulfasalazine, sulfasalazine], the IFNα production result in the data set on pDC [1] (setting [8]) is reported as “inhibited”. For the same compound, the TNFα production result with pDC [1] (setting [9]) was “inhibited”. The “kynurenine uptake and pS6 (S235/236) expression (cells positive for both)” value in the data set with pDC [3] (pDC in IL-3 and inhibitor o/n, then CpG-A 5h) is on record as “reductions”.

With `CC(C)[C@H]1CC[C@@]2(CO2)[C@H]2C(=O)OCC(C(=O)O)=C[C@H]12` [HPA, heptelidic (koningic) acid], the IFNα production result in the data set on pDC [1] (setting [8]) was “reductions”. The TNFα production result with pDC [1] (setting [9]) is “reductions”. In addition, in the data set with pDC [4], the “lactate levels in medium” value is listed as “reduced secreted lactate levels to below those in cultures of unstimulated pDC”. Also, the “protein synthesis measured by incorporation of puromycin analogue (OPP)” value in the data set on pDC [5] is “caused reductions in overall protein synthesis”.

Consider `NC1(C(=O)O)CC2CCC1C2` (centres unmarked) [BCH, 2-Aminobicyclo[2.2.1]heptane-2-carboxylic acid], for which the kynurenine uptake entry in data set [6] (setting [10]) was “abrogated transport of kynurenine in all of the conditions”; in [6] (pDC from healthy donors immediately ex vivo, 10 mM BCH), “blocked”.

In the case of `CCC(=O)N1CCN(c2ccc(-n3c(=O)ccc4cnc5ccc(-c6cnc7ccccc7c6)cc5c43)cc2C(F)(F)F)CC1` [TOR, torin1], the IFNα production entry in the data set on pDC [1] (setting [8]) is on record as “similar, although less pronounced effect”. Besides, in the data set with pDC [4], the “lactate levels in medium” value is given as “decline in CpG-A-induced lactate release”. In the data set with SLC7A11 (then CpG-A 5h), the “SLC7A11 mRNA expression” value is given as “inhibited”. Further, in the data set on SLC7A11, the “SLC7A11 and SLC7A5 mRNA expression (double positive cells)” value is on record as “similar, although less pronounced effect”.

With `CCS(=O)(=O)N1CC(CC#N)(n2cc(-c3ncnc4[nH]ccc34)cn2)C1` [BAR, baricitinib], the “live cells (cell death / cell survival)” value with pDC [2] (BAR 25 to 100 nM, alone or with SAZ, IL-3 o/n, then CpG-A 5h (Figure 14C)) was “increased cell death”.

On to `Cc1cc(Nc2nc(N[C@@H](C)c3ncc(F)cn3)ncc2Cl)n[nH]1` [AZD, AZD1480], for which the kynurenine uptake entry in data set [6] (setting [10]) is on record as “reductions”. Further, the IFNα production result with pDC [1] (setting [8]) is “lost and decrease”; in the data set with pDC [1] (pDC maintained in GM-CSF and inhibitor o/n, then CpG-A 5h (Figure 8)), “inhibited”. The TNFα production entry in the data set on pDC [1] (setting [9]) is given as “decrease”. Moreover, the “pSTAT5 (Y694) expression” value in the data set on STAT5 (Y694) is reported as “inhibited”. Also, the “kynurenine uptake and pS6 (S235/236) expression (cells with high rates of kynurenine uptake and mTORC1 activity)” value with pDC [3] (pDC in GM-CSF and inhibitor o/n, then CpG-A 5h (Figure 8)) is listed as “inhibited”. Moreover, the “SLC7A5 and SLC3A2 mRNA expression” value with SLC7A5 and SLC3A2 is given as “significantly inhibited”. For the same compound, in the data set with SLC7A11, the “SLC7A11 and SLC7A5 mRNA expression (double positive cells)” value is on record as “lost expression of both transporters”. Moreover, the “pS6 (S235/236) expression” value in the data set on mTORC1 was “reductions”.
